Data taken from US10010539B2, “Pyrazole, triazole and tetrazole orexin receptor antagonists” (MERCK SHARP & DOHME CORP., priority 2014, dated 2018).

How the values were obtained:
[1] = target: hOXIR (orexin-1 receptor) (Homo sapiens, UniProt O43613); assay: FLIPR Ca2+ Flux Assay, orexin-1 receptor (hOXIR FLIPR); format: cell-based; details: CHO cells expressing the orexin-1 receptor (method text: rat; table head: hOXIR); agonist 70 pM Ala-6,12 human orexin-A
Outline: (§1)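 Calcium flux in CHO cells bearing rat orexin-1 or human orexin-2 receptor; antagonist 5 min, then 70 pM Ala-6,12 orexin-A. Buffer HBSS, 20 mM HEPES, 0.1% BSA, 2.5 mM probenecid, pH7.4. Read-out: peak fluorescence, IC50.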

[2] = target: human orexin-2 receptor (Homo sapiens (Human), UniProt O43614); assay: FLIPR Ca2+ Flux Assay, orexin-2 receptor (hOX2R FLIPR); format: cell-based; details: CHO cells expressing the human orexin-2 receptor; agonist 70 pM Ala-6,12 human orexin-A
Sequence of human orexin-2 receptor (O43614 whole entry): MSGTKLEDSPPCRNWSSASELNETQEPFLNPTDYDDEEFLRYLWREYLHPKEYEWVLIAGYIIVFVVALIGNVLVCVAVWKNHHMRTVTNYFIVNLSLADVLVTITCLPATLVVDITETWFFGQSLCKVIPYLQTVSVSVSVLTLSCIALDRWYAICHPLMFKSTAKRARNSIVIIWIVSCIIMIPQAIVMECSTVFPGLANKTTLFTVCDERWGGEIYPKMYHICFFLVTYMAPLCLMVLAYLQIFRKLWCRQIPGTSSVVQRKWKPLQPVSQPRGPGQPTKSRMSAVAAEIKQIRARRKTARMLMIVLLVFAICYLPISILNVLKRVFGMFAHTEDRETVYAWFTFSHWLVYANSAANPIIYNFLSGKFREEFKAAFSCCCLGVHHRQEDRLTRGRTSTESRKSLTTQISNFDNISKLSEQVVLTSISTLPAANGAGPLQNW
Outline: as §1

Row | Compound | IC50 [1] [nM] | IC50 [2] [nM]
1 | C[C@@H]1CC[C@@H](n2cc(C(C)(O)C(F)(F)F)cn2)CN1C(=O)c1ccccc1-n1nccn1 (stereo partly drawn) [Example 104, 1,1,1-Trifluoro-2-{1-[(3R,6R)-6-methyl-1-{[2-(2H-1,2,3-triazol-2-yl)phenyl]carbonyl}piperidin-3-yl]-1H-pyrazol-4-yl}propan-2-ol] | 2010 | 13.4
2 | COC(=O)c1ncccc1C(=O)N1C[C@H](n2ncc(C(C)(C)O)n2)CC[C@H]1C [Example 8, Methyl 3-((2R,5R)-5-(4-(2-hy-droxypropan-2-yl)-2H-1,2,3-triazol-2-yl)-2-methylpiperidine-1-carbonyl)picolinate] | > 10000 | 1780
3 | C[C@@H]1CC[C@@H](n2cc(C(C)(C)O)cn2)CN1C(=O)c1ccccc1C1CCC1 [Example 87, 2-(1-{(3R,6R)-1-[(2-Cyclobutylphenyl)carbonyl]-6-methylpiperidin-3-yl}-1H-pyrazol-4-yl)propan-2-ol] | 3290 | 49.3
4 | C[C@@H]1CC[C@@H](n2cc(C(C)(C)O)cn2)CN1C(=O)c1cccnc1OCC(F)(F)F [Example 94, 2-{1-[(3R,6R)-6-Methyl-1-{[2-(2,2,2-trifluoroethoxy)pyridin-3-yl]carbonyl}piperidin-3-yl]-1H-pyrazol-4-yl}propan-2-ol] | > 10000 | 37
5 | Cc1nn([C@@H]2CC[C@@H](C)N(C(=O)c3cccnc3OCC(F)(F)F)C2)nc1C(C)(C)O [Example 68, 2-{5-mMethyl-2-[(3R,6R)-6-methyl-1-{[2-(2,2,2-trifluoroethoxy)pyridin-3-yl]carbonyl}piperidin-3-yl]-2H-1,2,3-triazol-4-yl}propan-2-ol] | 1520 | 6.9
6 | C[C@@H]1CC[C@@H](n2cc(C(C)(C)O)cn2)CN1C(=O)c1nccnc1-n1cccn1 [Example 95, 2-{1-[(3R,6R)-6-Methyl-1-{[3-(1H-pyrazol-1-yl)pyrazin-2-yl]carbonyl}piperidin-3-yl]-1H-pyrazol-4-yl}propan-2-ol] | > 10000 | 271
7 | C[C@@H]1CC[C@@H](n2cc([C@](C)(O)C(F)(F)F)cn2)CN1C(=O)c1ccccc1-n1nccn1 [Example 106, (2S)-1,1,1-Trifluoro-2-{1-[(3R,6R)-6-methyl-1-{[2-(2H-1,2,3-triazol-2-yl)phenyl]carbonyl}piperidin-3-yl]-1H-pyrazol-4-yl}propan-2-ol] | 2060 | 10.6
8 | C[C@@H]1CC[C@@H](n2cc(C(C)(C)O)cn2)CN1C(=O)c1ccc(F)cc1-n1nccn1 [Example 91, 2-{1-[(3R,6R)-1-{[4-Fluoro-2-(2H-1,2,3-triazol-2-yl)phenyl]carbonyl}-6-methylpiperidin-3-yl]-1H-pyrazol-4-yl}propan-2-ol] | > 10000 | 18.8
9 | COC(=O)c1ccccc1C(=O)N1C[C@H](n2ncc(C(C)(C)O)n2)CC[C@H]1C [Example 20, Methyl 2-((2R,5R)-5-(4-(2-hydroxypropan-2-yl)-2H-1,2,3-triazol-2-yl)-2-methylpiperidine-1-carbonyl)benzoate] | > 10000 | 24.6
10 | C[C@@H]1CC[C@@H](n2ncc(C(C)(C)O)n2)CN1C(=O)c1cc(F)ccc1-n1nccn1 [Example 38, 2-{2-[(3R,6R)-1-{[5-fluoro-2-(2H-1,2,3-triazol-2-yl)phenyl]carbonyl}-6-methylpiperidin-3-yl]-2H-1,2,3-triazol-4-yl}propan-2-ol] | > 10000 | 27.5
11 | Cc1nn([C@@H]2CC[C@@H](C)N(C(=O)c3ccccc3C3CC3)C2)nc1C(C)(C)O [Example 70, 2-(2-{(3R,6R)-1-[(2-Cyclopropylphenyl)carbonyl]-6-methylpiperidin-3-yl}-5-methyl-2H-1,2,3-triazol-4-yl)propan-2-ol] | 760 | 8.8
12 | C[C@@H]1CC[C@@H](n2ncc(C(C)(C)O)n2)CN1C(=O)c1ncccc1-n1nccn1 [Example 58, 2-{2-[(3R,6R)-6-Methyl-1-{[3-(2H-1,2,3-triazol-2-yl)pyridin-2-yl]carbonyl}piperidin-3-yl]-2H-1,2,3-triazol-4-yl}propan-2-ol] | > 10000 | 44.9
